Laboratory results reported in ChEMBL document CHEMBL1151865, “New developments for the design, synthesis and biological evaluation of potent SARS-CoV 3CL(pro) inhibitors” (Bioorg Med Chem Lett, 2009).

Each compound was assayed against Replicase polyprotein 1ab (Severe acute respiratory syndrome-related coronavirus, UniProt P0C6X7) (assay: Inhibition of SARS coronavirus 3CL protease pretreated for 10 mins before substrate addition).

| SMILES | Ki [µM] |
| --- | --- |
| CCCN(CCC)C(=O)CC[C@H](NC(=O)[C@H](CC(C)C)NC(=O)[C@@H](NC(=O)[C@H](C)NC(=O)OCc1ccccc1)C(C)C)C(=O)C(F)(F)F | 297 |
| CCN(CC)C(=O)CC[C@H](NC(=O)[C@H](CC(C)C)NC(=O)[C@@H](NC(=O)OCc1ccccc1)C(C)C)C(=O)c1nc2ccccc2s1 | 49.3 |
| CCCN(CCC)C(=O)CC[C@H](NC(=O)[C@H](CC(C)C)NC(=O)[C@@H](NC(=O)OCc1ccccc1)C(C)C)C(=O)C(F)(F)F | 363 |
| CC(C)C[C@H](NC(=O)[C@@H](NC(=O)OCc1ccccc1)C(C)C)C(=O)N[C@@H](CCC(=O)c1nccs1)C(=O)c1nccs1 | 45.2 |
| CCCN(CCC)C(=O)CC[C@H](NC(=O)[C@H](CC(C)C)NC(=O)OCc1ccccc1)C(=O)C(F)(F)F | 584 |
| CCN(CC)C(=O)CC[C@H](NC(=O)[C@H](CC(C)C)NC(=O)OCc1ccccc1)C(=O)c1nccs1 | 462 |
| CC(C)C[C@H](NC(=O)[C@@H](NC(=O)OCc1ccccc1)C(C)C)C(=O)N[C@@H](CCC(=O)N1CCOCC1)C(=O)C(F)(F)F | 21 |
| CC(C)C[C@H](NC(=O)[C@@H](NC(=O)OCc1ccccc1)C(C)C)C(=O)N[C@@H](CCC(=O)N1CCOCC1)C(=O)c1nccs1 | 478 |
| CC(C)C[C@H](NC(=O)[C@@H](NC(=O)OCc1ccccc1)C(C)C)C(=O)N[C@@H](CCC(=O)N(C)Cc1ccccc1)C(=O)C(F)(F)F | 34.1 |
| CCN(CC)C(=O)CC[C@H](NC(=O)[C@H](CC(C)C)NC(=O)[C@@H](NC(=O)OCc1ccccc1)C(C)C)C(=O)c1nccs1 | 112 |
| CCN(CC)C(=O)CC[C@H](NC(=O)[C@@H](NC(=O)OCc1ccccc1)C(C)C)C(=O)c1nccs1 | 614 |
| CCN(CC)C(=O)CC[C@H](NC(=O)[C@@H](NC(=O)OCc1ccccc1)C(C)C)C(=O)c1nc2ccccc2s1 | 159 |
